This passage reports LC50, IC50 and MIC results from ChEMBL document CHEMBL1151109, “Interference Competition Among Natural Fungal Competitors: an Antifungal Metabolite from the Coprophilous Fungus Preussia fleischhakii” (J Nat Prod, 1988).

A word on the LC50: it is the concentration that kills 50% of the test population. A higher LC50 goes with lower toxicity. In general, IC50 refers to the concentration needed to halve the response being measured.

SMILES strings stand for the structures. Values after ≈ are worked out from the molar mass of the structure shown.

Series [1] is described as follows: Toxicity in brine shrimp. It counts as organism-based. To be noted: artemia, in vivo.
A further series concerns Sordaria fimicola. Put plainly: Antifungal activity against Sordaria fimicola NRRL 6460 assessed as hyphal morphological changes. It counts as functional, organism-based.
The subject of another series is Ascobolus. The experiment in a line: Antifungal activity against sAscobolus furfuraceus NRRL 6459 assessed as hyphal morphological changes. It counts as functional, organism-based.

`COc1cc(C)c(Oc2cc(C)cc(O)c2)c(O)c1` [CYPERIN] displayed a 50% lethal concentration (LC50) in series [1] of 125 µg/mL (≈ 480 µM). Further, in the series with Sordaria fimicola, the half-inhibitory concentration (IC50) was determined as 50 µg/mL (≈ 192 µM) and the MIC was 75 µg/mL (≈ 288 µM). Further, in the series on Ascobolus, the IC50 is 100 µg/mL (≈ 384 µM) and the MIC stood at 250 µg/mL (≈ 960 µM).
